Reference: patent publication US4859696A, “Precutaneous absorption accelerator and preparation containing same” (Kao Corporation, priority 1984, dated 1989)

Assays:
[1] = Change in blood sugar level after rectal administration of insulin solutions to rabbits; assay type: in vivo, rabbit (Japanese white male)
Procedure: Japanese white male rabbits weighing about 2.5 kg, fasted for 24 hours, were fixed at the back, and each of solutions shown in Table 1 was administered to the rectum of about 2.5 cm from the anus using a tube. Cannule was inserted into the femoral vein of the hind leg to collect about 0.2 ml each of blood in every fixed time interval. Blood sugar level was measured using destrostick. Change in blood sugar level was determined with the passage of time, as the blood sugar level prior to administration being rendered 100%.

[2] = Test of percutaneous absorption of indomethacin; assay type: in vivo, rabbit (Japanese white female); settings: as compared to the comparative preparations
Procedure: Topical agents containing indometacin shown below were prepared and percutaneous absorption was examined with the topical agents.
Seven (7) Japanese white female rabbits weighing about 3 kg were used as one group. The topical agents of the present invention and the comparative preparations were applied onto the normal abdominal skin (10 cm×14 cm) of the rabbits in each group, from which the body hair was cut, respectively, at a dose corresponding to 20 mg of indomethacin. Blood was collected from the vein of the ear after 4, 10 and 20 hours and, blood concentration of indomethacin was measured.

[3] = Test for percutaneous absorption of methyl salicylate (cataplasms); assay type: in vivo, rabbit (Japanese white female); settings: as compared to the cataplasm for comparison
Procedure: Cataplasms shown below were prepared and, the percutaneous absorption of methyl salicylate was tested.
Seven (7) Japanese white female rabbits weighing about 3 kg were used as one group. […] Blood was collected from the vein of the femur after 3, 6, 10, 20 and 30 hours and, blood concentration of methyl salicylate was measured.

carrageenin caused edema = experiment: Inhibition of carrageenin caused edema on the paw of the rat; assay type: in vivo, rat (Wistar male); settings: as compared to the comparative preparation
Procedure: With respect to the topical agents of the present invention, the pharmacological effect was examined according to the inhibition of carrageenin caused edema on the paw of the rat.
Wistar male 10 rats, weighing about 110 g, were used as one group. The volume of the right rear paw of the rats in each group was previously measured using a branched glass container. A 1% carrageenin aqueous solution was subcutaneously injected to the right rear paw sole in a dose of 0.125 ml. Immediately thereafter 0.3 g of indomethacin topical agents were applied to the skin of the right rear paw sole. In the control group, carrageenin alone was injected. Then, the volume of the rear paw was measured every 90 minutes, which was continued until 6 hours after. The rate of edema and the inhibition rate of edema were calculated as described below. [formula]

[4] = 15 mins., this invention, ether derivative 0.1 g with insulin 10/kg, saline 0.65 g, ethanol 0.25 g
[5] = 30 mins., this invention, ether derivative 0.1 g with insulin 10/kg, saline 0.65 g, ethanol 0.25 g
[6] = 45 mins., this invention, ether derivative 0.1 g with insulin 10/kg, saline 0.65 g, ethanol 0.25 g
[7] = 60 mins., this invention, ether derivative 0.1 g with insulin 10/kg, saline 0.65 g, ethanol 0.25 g
[8] = 90 mins., this invention, ether derivative 0.1 g with insulin 10/kg, saline 0.65 g, ethanol 0.25 g
[9] = 120 mins., this invention, ether derivative 0.1 g with insulin 10/kg, saline 0.65 g, ethanol 0.25 g

1-O-methyl-branched isostearyl-3-O-methyl-2-O-2',3'-dihydroxypropylglycerol
Rate of Change in Blood Sugar Level before Administration [1, 4]: -17.8%
Rate of Change in Blood Sugar Level before Administration [1, 5]: -18.3%
Rate of Change in Blood Sugar Level before Administration [1, 6]: -24.5%
Rate of Change in Blood Sugar Level before Administration [1, 7]: -28.6%
Rate of Change in Blood Sugar Level before Administration [1, 8]: -21.9%
Rate of Change in Blood Sugar Level before Administration [1, 9]: -19.8%

CCCCCCCCCCCCOCC(COC)OCC(O)CO (stereo not drawn) [1-O-n-dodecyl-3-O-methyl-2-O-2',3'-dihydroxypropylglycerol]
percutaneous absorption of indomethacin (in words) [2]: extremely high percutaneous absorption of indomethacin
percutaneous absorption of methyl salicylate (in words) [3]: extremely high percutaneous absorption of methyl salicylate
rate of preventing the edema / pharmacological effect of indomethacin (in words) (carrageenin caused edema): extremely high pharmacological effect of indomethacin
Rate of Change in Blood Sugar Level before Administration ([1]; 15 mins., control, ether derivative 1 g): +6.5%
Rate of Change in Blood Sugar Level before Administration ([1]; 15 mins., this invention, ether derivative 0.05 g with insulin 10/kg, saline 0.70 g, ethanol 0.25 g): -13.4%
Rate of Change in Blood Sugar Level before Administration [1, 4]: -19.2%
Rate of Change in Blood Sugar Level before Administration ([1]; 30 mins., control, ether derivative 1 g): +10.2%
Rate of Change in Blood Sugar Level before Administration ([1]; 30 mins., this invention, ether derivative 0.05 g with insulin 10/kg, saline 0.70 g, ethanol 0.25 g): -18.6%
Rate of Change in Blood Sugar Level before Administration [1, 5]: -28.9%
Rate of Change in Blood Sugar Level before Administration ([1]; 45 mins., control, ether derivative 1 g): +9.8%
Rate of Change in Blood Sugar Level before Administration ([1]; 45 mins., this invention, ether derivative 0.05 g with insulin 10/kg, saline 0.70 g, ethanol 0.25 g): -25.2%
Rate of Change in Blood Sugar Level before Administration [1, 6]: -32.7%
Rate of Change in Blood Sugar Level before Administration ([1]; 60 mins., control, ether derivative 1 g): +9.5%
Rate of Change in Blood Sugar Level before Administration ([1]; 60 mins., this invention, ether derivative 0.05 g with insulin 10/kg, saline 0.70 g, ethanol 0.25 g): -27.6%
Rate of Change in Blood Sugar Level before Administration [1, 7]: -28.0%
Rate of Change in Blood Sugar Level before Administration ([1]; 90 mins., control, ether derivative 1 g): +9.5%
Rate of Change in Blood Sugar Level before Administration ([1]; 90 mins., this invention, ether derivative 0.05 g with insulin 10/kg, saline 0.70 g, ethanol 0.25 g): -25.8%
Rate of Change in Blood Sugar Level before Administration [1, 8]: -19.5%
Rate of Change in Blood Sugar Level before Administration ([1]; 120 mins., control, ether derivative 1 g): +10.2%
Rate of Change in Blood Sugar Level before Administration ([1]; 120 mins., this invention, ether derivative 0.05 g with insulin 10/kg, saline 0.70 g, ethanol 0.25 g): -22.4%
Rate of Change in Blood Sugar Level before Administration [1, 9]: -18.2%

Insulin: Insulin 10/kg in 25% Ethanol solution (control of Table 1)
Rate of Change in Blood Sugar Level before Administration ([1]; 15 mins., control, insulin 10/kg in 25% ethanol solution): +5.0%
Rate of Change in Blood Sugar Level before Administration ([1]; 30 mins., control, insulin 10/kg in 25% ethanol solution): +12.9%
Rate of Change in Blood Sugar Level before Administration ([1]; 45 mins., control, insulin 10/kg in 25% ethanol solution): +11.5%
Rate of Change in Blood Sugar Level before Administration ([1]; 60 mins., control, insulin 10/kg in 25% ethanol solution): +4.8%
Rate of Change in Blood Sugar Level before Administration ([1]; 90 mins., control, insulin 10/kg in 25% ethanol solution): +1.5%
Rate of Change in Blood Sugar Level before Administration ([1]; 120 mins., control, insulin 10/kg in 25% ethanol solution): +2.7%
